These results are taken from ChEMBL document CHEMBL1127943, “Morpholine-based substance P antagonists: assessment of the 3-point binding model” (Bioorg Med Chem Lett, 1994).

For this experiment, the target named is Substance-P receptor (Homo sapiens, UniProt P25103). Description: Binding affinity towards human Tachykinin receptor 1 by the displacement of [125I]- Substance P in CHO Cells.
Chain of Substance-P receptor (P25103 whole entry): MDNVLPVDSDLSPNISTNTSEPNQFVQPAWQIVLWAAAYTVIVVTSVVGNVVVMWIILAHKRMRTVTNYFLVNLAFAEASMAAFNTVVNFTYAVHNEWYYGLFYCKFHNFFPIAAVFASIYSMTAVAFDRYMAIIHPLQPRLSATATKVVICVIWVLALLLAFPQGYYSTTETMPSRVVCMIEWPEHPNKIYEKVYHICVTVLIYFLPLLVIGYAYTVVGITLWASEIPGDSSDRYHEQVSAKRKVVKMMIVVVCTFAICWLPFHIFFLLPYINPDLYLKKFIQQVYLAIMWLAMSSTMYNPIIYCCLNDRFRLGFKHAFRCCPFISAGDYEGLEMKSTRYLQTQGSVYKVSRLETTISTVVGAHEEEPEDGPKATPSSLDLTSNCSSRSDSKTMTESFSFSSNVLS

In turn, `FC(F)(F)c1cc(C2OC2[C@@H]2OCCN[C@@H]2c2ccccc2)cc(C(F)(F)F)c1` (some centres undefined) gave an IC50 of 87 nM. The figure for `FC(F)(F)c1cc(CC[C@H]2OCCN[C@@H]2c2ccccc2)cc(C(F)(F)F)c1` is 1130 nM; for `FC(F)(F)c1cc(CC[C@@H]2OCCN[C@@H]2c2ccccc2)cc(C(F)(F)F)c1` it is 1530 nM; for `O=C1CO[C@@H](/C=C/c2cc(C(F)(F)F)cc(C(F)(F)F)c2)[C@@H](c2ccccc2)N1` it is 2530 nM.
